Patent US20040033967A1, “Alkylated hexitol nucleoside analogues and oligomers thereof” (priority 2000, published 2004)

How the values were obtained:
Assay type in all cases: binding
HNA complement = experiment: Tm of hexameric hexitol sequences hybridised with HNA complement; details: hexamers
Excerpt: (§1) Hybridisation is the sequence specific base pair hydrogen bonding of bases of the oligonucleotide to bases of target RNA or DNA Such base pairs are said to be complementary to one another. In determining the extent of hybridization of an oligonucleotide to a complementary nucleic acid, the relative ability of an oligonucleotide to bind to the complementary nucleic acid may be compared by determining the melting temperature of a particular hybridisation complex. The melting temperature (Tm), a characteristic physical property of double helices, denotes the temperature in degrees centigrade, at which 50% helical (hybridized) versus coil (unhybridized) forms are present. Tm is measured by using the UV spectrum to determine the formation and breakdown (melting) of the hybridisation complex. Base stacking which occurs during hybridisation, is accompanied by a reduction in UV absorption (hypochromicity). Consequently, a reduction […]. The higher the Tm, the greater the strength of the bonds between the strands.
As an example a study with pyrimidine hexamers was done as depicted in Table 2. […]

RNA complement = experiment: Tm of hexameric hexitol sequences hybridised with RNA complement; details: hexamers
Excerpt: as §1
However, this increase is less pronounced than the increase in thermal stability obtained by modifying the nucleobase with a methyl substituent in the 5-position (ΔTm=+1.1° C./modification), (compare entry A and D). […]

complementary RNA = experiment: Thermal stability of octameric HNA sequences versus RNA; details: octamers versus RNA, entries C and D
Excerpt: as §1, with “strands. The results in Table 3 confirm the results of Table 2 (example 35). […] The effect is however less than for the duplexes containing ANA or those containing the 5-methyl modification (entry E with a ΔTm/modification=1° C. and C with ΔTm/modification=2° C., respectively). […]” for “strands.”

## COC1O[C@H](CO)[C@@H](O)C[C@@H]1n1cc(C)c(=O)[nH]c1=O (stereo partly drawn) [2.2, Methyl 2-(thymin-1-yl)-2,3-dideoxy-D-arabino-hexopyranoside]
HNA complement; hexitol (HNA, ANA) complements
  ΔTm compared to HNA, pairing with hexitol oligonucleotides: ≈ +0.8 ° C./modification
RNA complement
  ΔTm compared to HNA, pairing with RNA sequences: ≈ +0.3 ° C./modification
Complementary RNA
  increase in Tm compared with the hexitol T reference: 1.6 °C

## CO[C@@H]1[C@H](O)[C@@H](CO)OC[C@H]1n1ccc(=O)[nH]c1=O [1.1, 1,5-anhydro-3-O-methyl-2-(uracil-1-yl)-2-deoxy-altro-hexitol]
HNA complement; complementary HNA, Table 2
  ΔTm compared to the unmodified HNA:HNA duplex: +0.6 ° C./modification
